Each structure is given as a SMILES string. Where two headings read alike, the source gives them in different places. A value given as a limit tells only on which side of the number the result lay.

The subject of assay [1] is ovariectomized Sprague-Dawley rats. The assay is described as follows: Bone mineral density in the ovariectomized rat (pQCT, proximal tibia). The assay is classed as in vivo. The settings on record: 17β-estradiol 2 μg/rat s.c.; 5 weeks.
The target of a further assay is T1, human ERβ (Homo sapiens, UniProt Q92731).
T1 construct: Flag (C); made in house; host or cells: E. coli BL21 (DE3), clarified lysate
As to the kind of experiment: ER radioligand binding competition, ERβ.

Another assay has as its target T2, human ERα (Homo sapiens, UniProt P03372).
T2 construct: These templates contained amino acids M250-V595 of human ERα; His (N); Flag (C); made in house; host or cells: E. coli BL21 (DE3), clarified lysate
T2 sequence (P03372 250-595): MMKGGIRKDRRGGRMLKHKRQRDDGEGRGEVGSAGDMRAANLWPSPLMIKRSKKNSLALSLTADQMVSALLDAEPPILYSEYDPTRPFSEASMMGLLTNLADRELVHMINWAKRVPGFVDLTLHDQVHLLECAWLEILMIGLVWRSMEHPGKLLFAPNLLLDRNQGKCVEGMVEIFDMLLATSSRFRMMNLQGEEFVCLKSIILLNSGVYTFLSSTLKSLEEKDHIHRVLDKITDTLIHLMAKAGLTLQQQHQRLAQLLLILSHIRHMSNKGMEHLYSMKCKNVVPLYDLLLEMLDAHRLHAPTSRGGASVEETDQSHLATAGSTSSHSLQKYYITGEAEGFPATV
As to the kind of experiment: ER radioligand binding competition, ERα.

A further assay deals with Lewis rats. As to the kind of experiment: Lewis rat adjuvant-induced arthritis, treatment protocol: joint score (maximal score per day 12). The assay is classed as in vivo. To be noted: s.c. daily, begun Day 8 after adjuvant.
Assay [2] concerns Sexually immature 129 SvE mice. The assay is described as follows: Mouse uterotrophic test procedure (Procedure 2). The format is in vivo. To be noted: compound 50 mg/kg s.c., days 22-25.
Setting [3] is: competition with [3H]-17β-estradiol, read-out: ER-α IC50.

T1 sequence (Q92731 214-530): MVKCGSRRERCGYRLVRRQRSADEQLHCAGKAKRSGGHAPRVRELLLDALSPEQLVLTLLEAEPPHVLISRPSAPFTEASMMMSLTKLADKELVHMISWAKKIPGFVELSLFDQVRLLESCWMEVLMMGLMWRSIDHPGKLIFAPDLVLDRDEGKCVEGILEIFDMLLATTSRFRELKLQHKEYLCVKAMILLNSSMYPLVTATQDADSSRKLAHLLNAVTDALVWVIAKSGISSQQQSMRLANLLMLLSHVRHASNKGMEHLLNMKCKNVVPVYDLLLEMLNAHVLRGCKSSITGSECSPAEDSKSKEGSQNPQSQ

Turning to `C[C@]12CC[C@@H]3c4ccc(O)cc4CC[C@H]3[C@@H]1CC[C@@H]2O` [17β-estradiol, reference compound], in assay [1], the “Total Bone Mineral Density (mean ± SEM)” value worked out at 639.49 ± 14.47 mg/mL and the “Trabecular Bone Mineral Density (mean ± SEM)” value worked out at 453.28 ± 24.93 mg/mL.

What is called IC50 is the concentration that gives 50% inhibition. On to `Oc1ccc(O)c(-c2nc3cc(O)ccc3o2)c1` [Example 1, 2-(5-HYDROXY-1,3-BENZOXAZOL-2-YL) BENZENE-1,4-DIOL], for which the IC50 at human ERβ was 0.14 µM; at human ERα (setting [3]), 0.72 µM.

`Oc1ccc2nc(-c3ccc(O)c(F)c3)oc2c1` [Example 6, 2-(3-FLUORO-4-HYDROXYPHENYL)-1,3-BENZOXAZOL-6-OL] had an IC50 on human ERα of 0.843 µM.

As for `Oc1ccc(O)c(-c2nc3ccc(O)cc3o2)c1` [Example 8, 2-(6-HYDROXY-1,3-BENZOXAZOL-2-YL)BENZENE-1,4-DIOL], the IC50 on human ERβ came to 0.181 µM; at human ERα (setting [3]) it was 2.35 µM.

On human ERα, `Oc1ccc2nc(-c3cccc(O)c3O)oc2c1` [Example 9, 3-(6-HYDROXY-1,3-BENZOXAZOL-2-YL)BENZENE-1,2-DIOL] had an IC50 of 1.5 µM.

As for `Oc1cc(Br)c2oc(-c3ccc(O)c(F)c3F)nc2c1` [Example 23, 7-BROMO-2-(2,3-DIFLUORO-4-HYDROXYPHENYL)-1,3-BENZOXAZOL-5-OL], the IC50 came out at 0.003 µM at human ERβ and 0.113 µM at human ERα (setting [3]).

As for `C=Cc1cc(O)cc2nc(-c3ccc(O)cc3)oc12` [Example 27, 2-(4-HYDROXYPHENYL)-7-VINYL-1,3-BENZOXAZOL-5-OL], on human ERα, the IC50 was determined as 0.409 µM. The Joint inflammation score in the assay on Lewis rats (table Day 1) was found to be 11.33; with Lewis rats (table Day 2), 11.15; in the assay on Lewis rats (table Day 3) it was 11.33; in the assay with Lewis rats (table Day 4) it was 9.83; with Lewis rats (table Day 5) it was 8.83; in the assay on Lewis rats (table Day 6) it was 7.83. The Joint inflammation score stood at 6.16 in the assay on Lewis rats (table Day 7); 5.00 with Lewis rats (table Day 8); 4.33 in the assay on Lewis rats (table Day 9); 2.66 with Lewis rats (table Day 10); 1.83 in the assay on Lewis rats (table Day 11); 1.83 in the assay with Lewis rats (table Day 12). Moreover, the Joint inflammation score is on record as 2.66 with Lewis rats (table Day 13); 2.66 in the assay on Lewis rats (table Day 14); 2.00 in the assay with Lewis rats (table Day 15); 2.00 in the assay with Lewis rats (table Day 16); 1.50 in the assay on Lewis rats (table Day 17).

On to `Oc1ccc(-c2nc3cc(O)cc(C(Br)CBr)c3o2)cc1` (stereo not drawn) [Example 30, 7-(1,2-DIBROMOETHYL)-2-(4-HYDROXYPHENYL)-1,3-BENZOXAZOL-5-OL], for which the IC50 at human ERβ was determined as 0.134 µM; at human ERα (setting [3]) it was 3.08 µM.

For `C=C(Br)c1cc(O)cc2nc(-c3ccc(O)cc3)oc12` [Example 31, 7-(1-BROMOVINYL)-2-(4-HYDROXYPHENYL)-1,3-BENZOXAZOL-5-OL], the IC50 at human ERβ came to 0.031 µM; on human ERα (setting [3]), 0.352 µM.

In the case of `C=C(Br)c1cc(O)cc2nc(-c3ccc(O)cc3F)oc12` [Example 32, 7-(1-BROMOVINYL)-2-(2-FLUORO-4-HYDROXYPHENYL)-1,3-BENZOXAZOL-5-OL], the IC50 at human ERβ is 0.016 µM; at human ERα (setting [3]), 0.196 µM. Also, the Joint inflammation score in the assay on Lewis rats (table Day 1) stood at 11.33; in the assay on Lewis rats (table Day 2), 10.83; with Lewis rats (table Day 3), 9.33; in the assay with Lewis rats (table Day 4), 8.00; in the assay with Lewis rats (table Day 5) it was 5.83; in the assay with Lewis rats (table Day 6), 3.33. Further, the Joint inflammation score with Lewis rats (table Day 7) was 3.00; in the assay on Lewis rats (table Day 8), 2.50; in the assay with Lewis rats (table Day 9), 2.50; with Lewis rats (table Day 10), 2.50; in the assay on Lewis rats (table Day 11), 2.50; with Lewis rats (table Day 12), 2.50. Also, the Joint inflammation score in the assay on Lewis rats (table Day 13) is on record as 2.50; in the assay with Lewis rats (table Day 14), 2.50; in the assay with Lewis rats (table Day 15), 2.00; in the assay on Lewis rats (table Day 16), 1.33; in the assay with Lewis rats (table Day 17), 1.00.

Consider `C=C(Br)c1cc(O)cc2nc(-c3ccc(O)c(F)c3F)oc12` [Example 33, 7-(1-BROMOVINYL)-2-(2,3-DIFLUORO-4-HYDROXYPHENYL)-1,3-BENZOXAZOL-5-OL], for which the IC50 stood at 0.031 µM at human ERβ and 0.352 µM on human ERα (setting [3]).

For `NC(=O)c1cc(O)cc2nc(-c3ccc(O)cc3)oc12` [Example 42, 5-HYDROXY-2-(4-HYDROXYPHENYL)-1,3-BENZOXAZOL-7-CARBOXAMIDE], the “mean uterine weight ± SEM” value in assay [2] was 9.5 ± 0.6 mg.

As to `CCc1cc(O)ccc1-c1nc2cc(O)cc(CC)c2o1` [Example 45, 7-ETHYL-2-(2-ETHYL-4-HYDROXYPHENYL)-1,3-BENZOXAZOL-5-OL], the IC50 on human ERβ was found to be 0.084 µM; on human ERα (setting [3]), 0.655 µM.

As for `CC(C)(O)c1cc(O)cc2nc(-c3ccc(O)cc3)oc12` [Example 50], the IC50 is 0.399 µM on human ERβ and over 5 µM at human ERα (setting [3]).

Regarding `C=C(C)c1cc(O)cc2nc(-c3ccc(O)cc3)oc12` [Example 51, 2-(4-HYDROXYPHENYL)-7-ISOPROPENYL-1,3-BENZOXAZOL-5-OL], the IC50 turned out to be 0.142 µM on human ERβ and 0.775 µM at human ERα (setting [3]).

With `COc1cc(O)c(Br)c2nc(-c3ccc(O)cc3)oc12` [Example 59, 4-BROMO-2-(4-HYDROXYPHENYL)-7-METHOXY-1,3-BENZOXAZOL-5-OL], the 50% inhibitory concentration (IC50) on human ERβ stood at 0.052 µM; on human ERα (setting [3]), 2.67 µM.

`COc1c(Br)c(O)c(Br)c2nc(-c3ccc(O)cc3)oc12` [Example 60, 4,6-DIBROMO-2-(4-HYDROXYPHENYL)-7-METHOXY-1,3-BENZOXAZOL-5-OL]: the IC50 is 0.064 µM at human ERβ and 0.559 µM at human ERα (setting [3]).

For `Oc1cc(Br)c2oc(-c3cc(F)c(O)c(F)c3)nc2c1` [Example 61, 7-BROMO-2-(3,5-DIFLUORO-4-HYDROXYPHENYL)-1,3-BENZOXAZOL-5-OL], the IC50 on human ERβ turned out to be 0.093 µM; on human ERα (setting [3]), 1.18 µM.

Values taken from US20060046968A1, “Prodrug substituted benzoxazoles as estrogenic agents” (priority 2004, published 2006).
